In patent publication US20070049564A1 (Wyeth, priority 2005, published 2007):
Converted amounts (≈) assume the structure as drawn. Like-named read-outs stand apart in the source and are kept apart here.

Columns and labels:
Salmonella spp. GC 235 = assay: MIC, broth microdilution
E. coli #311 = assay: In vivo activity (oral, iv; ED50) against E. coli in mice; settings: Escherichia coli
From the text: . […] Smith and E. Coli #311 in mammals.
Results of the tests (MIC, oral and IV) are list in Table 7.

Salmonella spp. GC 566 = assay: MIC, broth microdilution; settings: Salmonella
S. cholerasius GC 1355 = assay: MIC, broth microdilution
Description: Antimicrobial susceptibility testing. The in vitro activities of the antibiotics are determined by the broth microdilution method as recommended by the National Committee for Clinical Laboratory Standards (NCCLS) (1). Mueller-Hinton II broth (MHBII)(BBL Cockeysville, Md.) is the medium employed in the testing procedures. Microtiter plates containing serial dilutions of each antimicrobial agent are inoculated with each organism to yield the appropriate density (10^5 CFU/ml) in a 100 μl final volume. The plates are incubated for 18-22 hours at 35° C. in ambient air.
Presented in Tables I-XIII are representative compounds of Formula I which were evaluated against a panel of 40 selected gram-positive and gram-negative bacteria strains by pre-incubation in water, mouse serum or human serum. Representative compounds were first incubated in mouse serum for an hour prior to the in vitro testing against a panel of selected gram-positive and gram-negative bacteria strains. All compounds were also pre-incubated in water for an hour prior to testing as control. Representative compounds of Formula I were incubated in human serum prior to MIC determination.

Staph. aureus Smith = assay: In vitro activity (MIC) against Staph. aureus Smith; format: cell-based; settings: Staphylococcus aureus
[1] = Salmonella, SPP.GC235, Salmonella spp. GC 235, Mouse Serum pre-incubation
[2] = Salmonella, SPP.GC235, Salmonella spp. GC 235, Water pre-incubation
[3] = single intravenous dose (SIV), read-out: ED50 E. coli #311 SIV
[4] = single oral dose (SOD), read-out: ED50 E. coli #311 SOD
[5] = SPP.GC566, Salmonella spp. GC 566, Mouse Serum pre-incubation
[6] = SPP.GC566, Salmonella spp. GC 566, Water pre-incubation
[7] = S. cholerasius GC 1355, Mouse Serum pre-incubation
[8] = S. cholerasius GC 1355, Water pre-incubation
[9] = Salmonella, SPP.GC235, pre-incubation in human serum
[10] = Salmonella, SPP.GC235, pre-incubation in mouse serum
[11] = Salmonella, SPP.GC235, pre-incubation in water
[12] = SPP.GC566, pre-incubation in human serum
[13] = SPP.GC566, pre-incubation in mouse serum
[14] = SPP.GC566, pre-incubation in water

SMILES	MIC (Salmonella spp. GC 235; [1]) [µg/mL]	MIC (Salmonella spp. GC 235; [2]) [µg/mL]	ED50 (E. coli #311; [3]) [mg/kg]	ED50 (E. coli #311; [4]) [mg/kg]	MIC (Salmonella spp. GC 566; [5]) [µg/mL]	MIC (Salmonella spp. GC 566; [6]) [µg/mL]	MIC (S. cholerasius GC 1355; [7]) [µg/mL]	MIC (S. cholerasius GC 1355; [8]) [µg/mL]	MIC (Salmonella spp. GC 235; [10]) [µg/mL]	MIC (Salmonella spp. GC 235; [11]) [µg/mL]	MIC (Salmonella spp. GC 566; [13]) [µg/mL]	MIC (Salmonella spp. GC 566; [14]) [µg/mL]	MIC (S. cholerasius GC 1355; pre-incubation in mouse serum) [µg/mL]	MIC (S. cholerasius GC 1355; pre-incubation in water) [µg/mL]	other results
CCCCN(CC(=O)Nc1cc(N(C)C)c2c(c1O)C(=O)C1=C(O)[C@]3(O)C(=O)C(C(N)=O)=C(O)[C@@H](N(C)C)[C@@H]3C[C@@H]1C2)C(=O)OCOC(=O)c1ccc(F)cc1 [Example 4, ({[(2-{[(5aR,6aS,7S,10aS)-9-(aminocarbonyl)-4,7-bis(dimethylamino)-1,8,10a,11-tetrahydroxy-10,12-dioxo-5,5a,6,6a,7,10,10a,12-octahydrotetracen-2-yl]amino}-2-oxoethyl)(butyl)amino]carbonyl}oxy)methyl 4-fluorobenzoate]	2 (≈ 2.56 µM)	> 64	> 2	> 32	4 (≈ 5.12 µM)	> 64	8 (≈ 10.2 µM)	> 64	–	–	–	–	–	–	–
CCCCN(CC(=O)Nc1cc(N(C)C)c2c(c1O)C(=O)C1=C(O)[C@]3(O)C(=O)C(C(N)=O)=C(O)[C@@H](N(C)C)[C@@H]3C[C@@H]1C2)C(=O)OCOC(=O)Cc1ccccc1 [Example 12, ({[(2-{[(5aR,6aS,7S,10aS)-9-(aminocarbonyl)-4,7-bis(dimethylamino)-1,8,10a,11-tetrahydroxy-10,12-dioxo-5,5a,6,6a,7,10,10a,12-octahydrotetracen-2-yl]amino}-2-oxoethyl)(butyl)amino]carbonyl}oxy)methyl phenylacetate]	1 (≈ 1.29 µM)	64 (≈ 82.3 µM)	–	–	4 (≈ 5.14 µM)	> 64	16 (≈ 20.6 µM)	> 64	–	–	–	–	–	–	–
CCCCN(CC(=O)Nc1cc(N(C)C)c2c(c1O)C(=O)C1=C(O)[C@]3(O)C(=O)C(C(N)=O)=C(O)[C@@H](N(C)C)[C@@H]3C[C@@H]1C2)C(=O)OCOC(=O)C(C)(C)C [Example 13, ({[(2-{[(5aR,6aS,7S,10aS)-9-(aminocarbonyl)-4,7-bis(dimethylamino)-1,8,10a,11-tetrahydroxy-10,12-dioxo-5,5a,6,6a,7,10,10a,12-octahydrotetracen-2-yl]amino}-2-oxoethyl)(butyl)amino]carbonyl}oxy)methyl pivalate]	2 (≈ 2.69 µM)	16 (≈ 21.5 µM)	–	–	8 (≈ 10.8 µM)	64 (≈ 86 µM)	16 (≈ 21.5 µM)	> 64	–	–	–	–	–	–	–
CCCN(CC(=O)Nc1cc(N(C)C)c2c(c1O)C(=O)C1=C(O)[C@]3(O)C(=O)C(C(N)=O)=C(O)[C@@H](N(C)C)[C@@H]3C[C@@H]1C2)C(=O)OCc1ccccc1 [Example 14, benzyl 2-{[(5aR,6aS,7S,10aS)-9-(aminocarbonyl)-4,7-bis(dimethylamino)-1,8,10a,11-tetrahydroxy-10,12-dioxo-5,5a,6,6a,7,10,10a,12-octahydrotetracen-2-yl]amino}-2-oxoethyl(propyl)carbamate]	> 64	> 64	–	–	> 64	> 64	> 64	> 64	–	–	–	–	–	–	–
CCCN(CC(=O)Nc1cc(N(C)C)c2c(c1O)C(=O)C1=C(O)[C@]3(O)C(=O)C(C(N)=O)=C(O)[C@@H](N(C)C)[C@@H]3C[C@@H]1C2)C(=O)OCC [Example 15, ethyl 2-{[(5aR,6aS,7S,10aS)-9-(aminocarbonyl)-4,7-bis(dimethylamino)-1,8,10a,11-tetrahydroxy-10,12-dioxo-5,5a,6,6a,7,10,10a,12-octahydrotetracen-2-yl]amino}-2-oxoethyl(propyl)carbamate]	> 64	> 64	–	–	> 64	> 64	> 64	> 64	–	–	–	–	–	–	–
CCCN(CC(=O)Nc1cc(N(C)C)c2c(c1O)C(=O)C1=C(O)[C@]3(O)C(=O)C(C(N)=O)=C(O)[C@@H](N(C)C)[C@@H]3C[C@@H]1C2)C(=O)OCC(C)C [Example 16, isobutyl 2-{[(5aR,6aS,7S,10aS)-9-(aminocarbonyl)-4,7-bis(dimethylamino)-1,8,10a,11-tetrahydroxy-10,12-dioxo-5,5a,6,6a,7,10,10a,12-octahydrotetracen-2-yl]amino}-2-oxoethyl(propyl)carbamate]	> 64	> 64	–	–	> 64	> 64	> 64	> 64	–	–	–	–	–	–	–
CCCN(CC(=O)Nc1cc(N(C)C)c2c(c1O)C(=O)C1=C(O)[C@]3(O)C(=O)C(C(N)=O)=C(O)[C@@H](N(C)C)[C@@H]3C[C@@H]1C2)C(=O)OCOC(=O)c1cc(C)cc(C)c1 [Example 26, ({[(2-{[(5aR,6aS,7S,10aS)-9-(aminocarbonyl)-4,7-bis(dimethylamino)-1,8,10a,11-tetrahydroxy-10,12-dioxo-5,5a,6,6a,7,10,10a,12-octahydrotetracen-2-yl]amino}-2-oxoethyl)(propyl)amino]carbonyl}oxy)methyl 3,5-dimethylbenzoate]	–	–	–	–	–	–	–	–	–	–	–	–	–	–	MIC (Staph. aureus Smith; Table 8): 0.5 µg/mL (≈ 0.643 µM)
CCCN(CC(=O)Nc1cc(N(C)C)c2c(c1O)C(=O)C1=C(O)[C@]3(O)C(=O)C(C(N)=O)=C(O)[C@@H](N(C)C)[C@@H]3C[C@@H]1C2)C(=O)OCOC(=O)c1ccc(C(C)(C)C)cc1 [Example 28, ({[(2-{[(5aR,6aS,7S,10aS)-9-(aminocarbonyl)-4,7-bis(dimethylamino)-1,8,10a,11-tetrahydroxy-10,12-dioxo-5,5a,6,6a,7,10,10a,12-octahydrotetracen-2-yl]amino}-2-oxoethyl)(propyl)amino]carbonyl}oxy)methyl 4-tert-butylbenzoate]	–	–	> 2	> 32	–	–	–	–	–	–	–	–	–	–	MIC (Staph. aureus Smith; Table 8): 32 µg/mL (≈ 39.7 µM)
Cc1ccc(C(=O)OCOC(=O)N(CC(=O)Nc2cc(N(C)C)c3c(c2O)C(=O)C2=C(O)[C@]4(O)C(=O)C(C(N)=O)=C(O)[C@@H](N(C)C)[C@@H]4C[C@@H]2C3)C(C)(C)C)cc1 [Example 47]	–	–	3.17	> 64	–	–	–	–	–	–	–	–	–	–	MIC (Staph. aureus Smith; Table 6): 4 µg/mL (≈ 5.14 µM)
CCCCC(=O)OCOC(=O)N(CC(=O)Nc1cc(N(C)C)c2c(c1O)C(=O)C1=C(O)[C@]3(O)C(=O)C(C(N)=O)=C(O)[C@@H](N(C)C)[C@@H]3C[C@@H]1C2)C(C)(C)C [Example 61, ({[(2-{[(5aR,6aS,7S,10aS)-9-(aminocarbonyl)-4,7-bis(dimethylamino)-1,8,10a,11-tetrahydroxy-10,12-dioxo-5,5a,6,6a,7,10,10a,12-octahydrotetracen-2-yl]amino}-2-oxoethyl)(tert-butyl)amino]carbonyl}oxy)methyl pentanoate]	–	–	2 to 4	> 32	–	–	–	–	1 (≈ 1.34 µM)	> 64	1 (≈ 1.34 µM)	> 64	2 (≈ 2.69 µM)	> 64	MIC (Salmonella spp. GC 235; [9]): 16 µg/mL (≈ 21.5 µM); MIC (Salmonella spp. GC 566; [12]): 32 µg/mL (≈ 43 µM); MIC (S. cholerasius GC 1355; pre-incubation in human serum): 64 µg/mL (≈ 86 µM)
CN(C)c1cc(NC(=O)CN(C(=O)OCOC(=O)C2CCC2)C(C)(C)C)c(O)c2c1C[C@H]1C[C@H]3[C@H](N(C)C)C(O)=C(C(N)=O)C(=O)[C@@]3(O)C(O)=C1C2=O [Example 62, ({[(2-{[(5aR,6aS,7S,10aS)-9-(aminocarbonyl)-4,7-bis(dimethylamino)-1,8,10a,11-tetrahydroxy-10,12-dioxo-5,5a,6,6a,7,10,10a,12-octahydrotetracen-2-yl]amino}-2-oxoethyl)(tert-butyl)amino]carbonyl}oxy)methyl cyclobutanecarboxylate]	–	–	4 to 8	> 32	–	–	–	–	1 (≈ 1.35 µM)	> 64	1 (≈ 1.35 µM)	> 64	2 (≈ 2.7 µM)	> 64	MIC (Salmonella spp. GC 235; [9]): 8 µg/mL (≈ 10.8 µM); MIC (Salmonella spp. GC 566; [12]): 16 µg/mL (≈ 21.6 µM); MIC (S. cholerasius GC 1355; pre-incubation in human serum): 32 µg/mL (≈ 43.1 µM)
CN(C)c1cc(NC(=O)CN(C(=O)OCOC(=O)CCC2CCCCC2)C(C)(C)C)c(O)c2c1C[C@H]1C[C@H]3[C@H](N(C)C)C(O)=C(C(N)=O)C(=O)[C@@]3(O)C(O)=C1C2=O [Example 63, ({[(2-{[(5aR,6aS,7S,10aS)-9-(aminocarbonyl)-4,7-bis(dimethylamino)-1,8,10a,11-tetrahydroxy-10,12-dioxo-5,5a,6,6a,7,10,10a,12-octahydrotetracen-2-yl]amino}-2-oxoethyl)(tert-butyl)amino]carbonyl}oxy)methyl 3-cyclohexylpropanoate]	–	–	4 to 8	> 32	–	–	–	–	1 (≈ 1.25 µM)	> 64	1 (≈ 1.25 µM)	> 64	2 (≈ 2.51 µM)	> 64	MIC (Salmonella spp. GC 235; [9]): > 64 µg/mL; MIC (Salmonella spp. GC 566; [12]): > 64 µg/mL; MIC (S. cholerasius GC 1355; pre-incubation in human serum): > 64 µg/mL
CCCCN(CC(=O)Nc1cc(N(C)C)c2c(c1O)C(=O)C1=C(O)[C@]3(O)C(=O)C(C(N)=O)=C(O)[C@@H](N(C)C)C3CC1C2)C(=O)OCc1oc(=O)oc1C (stereo partly drawn) [Example 109, (5-methyl-2-oxo-1,3-dioxol-4-yl)methyl 2-{[(7S,10aS)-9-(aminocarbonyl)-4,7-bis(dimethylamino)-1,8,10a,11-tetrahydroxy-10,12-dioxo-5,5a,6,6a,7,10,10a,12-octahydrotetracen-2-yl]amino}-2-oxoethyl(butyl)carbamate]	–	–	–	–	–	–	–	–	1 (≈ 1.35 µM)	2 (≈ 2.7 µM)	2 (≈ 2.7 µM)	4 (≈ 5.39 µM)	8 (≈ 10.8 µM)	32 (≈ 43.1 µM)	MIC (Salmonella spp. GC 235; pre-incubation in water): 4 UG/ML
